Results taken from patent US20070249670A1, “Glycogen Phosphorylase Inhibitor Compounds and Pharmaceutical Compositions Thereof” (SMITHKLINE BEECHAM CORPORATION, priority 2004, published 2007).
pIC50: −log10 of the molar value.

Target: T1, human liver glycogen phosphorylase a (HLGPa) (Homo sapiens, UniProt P06737)
T1 construct: creating a full-length cDNA fused at the 5′ end to codons for methionine-glycine-alanine-histidine; 6xHis tag (leader Met-Gly-Ala-His6-Gly-Gly) (N); made in house; host or cells: E. coli (bacterial expression plasmid pTXK1007LTev)
T1 sequence (P06737 2-847 limits assumed): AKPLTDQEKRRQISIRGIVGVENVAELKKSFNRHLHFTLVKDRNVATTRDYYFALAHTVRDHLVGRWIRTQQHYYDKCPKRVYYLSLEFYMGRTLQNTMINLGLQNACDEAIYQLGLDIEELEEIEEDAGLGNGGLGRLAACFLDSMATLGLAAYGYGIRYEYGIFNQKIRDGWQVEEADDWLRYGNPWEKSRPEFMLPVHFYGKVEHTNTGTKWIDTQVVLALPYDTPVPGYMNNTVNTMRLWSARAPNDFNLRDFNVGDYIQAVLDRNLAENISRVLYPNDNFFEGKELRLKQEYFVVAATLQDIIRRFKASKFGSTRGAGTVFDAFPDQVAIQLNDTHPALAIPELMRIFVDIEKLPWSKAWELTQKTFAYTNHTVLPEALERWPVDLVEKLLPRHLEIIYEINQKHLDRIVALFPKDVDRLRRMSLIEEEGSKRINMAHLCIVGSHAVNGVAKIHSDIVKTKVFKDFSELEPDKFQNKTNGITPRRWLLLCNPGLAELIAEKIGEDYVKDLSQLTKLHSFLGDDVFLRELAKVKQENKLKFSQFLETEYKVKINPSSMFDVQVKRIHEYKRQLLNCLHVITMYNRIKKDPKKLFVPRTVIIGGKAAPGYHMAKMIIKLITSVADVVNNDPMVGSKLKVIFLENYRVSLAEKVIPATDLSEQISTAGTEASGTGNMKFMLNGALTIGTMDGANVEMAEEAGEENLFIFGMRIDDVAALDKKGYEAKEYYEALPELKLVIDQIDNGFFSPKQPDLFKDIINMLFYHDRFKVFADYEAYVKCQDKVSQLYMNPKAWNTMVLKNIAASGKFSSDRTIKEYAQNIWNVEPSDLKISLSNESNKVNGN
Assay: Human liver glycogen phosphorylase a enzymatic activity assay (coupled, fluorescent resorufin readout, with and without 10 mM glucose)
Format: biochemical

[1] = human liver glycogen phosphorylase a, table does not say whether with or without 10 mM glucose
[2] = human liver glycogen phosphorylase a enzymatic activity assay

Row | SMILES | pIC50 [1] | pIC50 [2]
1 | O=C(O)CN(Cc1ccccn1)C(=O)c1cc2ccccc2cc1NC(=O)Nc1c(Cl)cc(Cl)cc1Cl [Example 242, N-(2-pyridinylmethyl)-N-{[3-({[(2,4,6-trichlorophenyl)amino]carbonyl}amino)-2-naphthalenyl]carbonyl}glycine] | 5.54 | 
2 | Cc1cc(C)c(NC(=O)Nc2cc3ccccc3nc2C(=O)N[C@](C)(C(=O)O)C2CCCCC2)c(C)c1 [Example 312, 2-Cyclohexyl-N-{[3-({[(2,4,6-trimethylphenyl)amino]carbonyl}amino)-2-quinolinyl]carbonyl}-D-alanine] | 6.64 | 
3 | COc1ccc(-c2ccc(C(=O)N[C@H](C(=O)O)C(C)(C)C)c(NC(=O)Nc3c(Cl)cc(Cl)cc3Cl)c2)cc1 [Example 201, 3-Methyl-N-{[4′-(methyloxy)-3-({[(2,4,6-trichlorophenyl)amino]carbonyl}amino)-4-biphenylyl]carbonyl}-L-valine] | 6.17 | 
4 | O=C(Nc1cc2ccccc2cc1C(=O)NC1(C(=O)O)CCOCC1)Nc1c(Cl)cccc1Cl [Example 283, 4-({[3-({[(2,6-Dichlorophenyl)amino]carbonyl}amino)-2-naphthalenyl]carbonyl}amino)tetrahydro-2H-pyran-4-carboxylic acid] | 5.14 | 
5 | COc1ccc(-c2ccc(C(=O)O)c(NC(=O)Nc3c(C)cc(C)cc3C)c2)cc1 [Example 380, 4′-(methyloxy)-3-({[(2,4,6-trimethylphenyl)amino]carbonyl}amino)-4-biphenylcarboxylic acid] | 5.70 | 
6 | O=C(O)CC[C@H](NC(=O)c1cc2ccccc2cc1NC(=O)Nc1ccccc1Cl)C(=O)O [Example 55, N-[3-({[(2-chlorophenyl)amino]carbonyl}amino)-2-naphthoyl]-L-glutamic acid] |  | 4.98
7 | COC(=O)[C@H](CC(N)=O)NC(=O)c1ccc(-c2ccc(OC)cc2)cc1NC(=O)Nc1c(C)cc(C)cc1C [Example 377, methyl N^2-{[4′-(methyloxy)-3-({[(2,4,6-trimethylphenyl)amino]carbonyl}amino)-4-biphenylyl]carbonyl}-L-asparaginate] | 5.04 | 
8 | O=C(Nc1cc(-c2cccnc2)sc1C(=O)O)Nc1c(Cl)cccc1Cl [Example 403, 3-({[(2,6-dichlorophenyl)amino]carbonyl}amino)-5-(3-pyridinyl)-2-thiophenecarboxylic acid] |  | 5.37
9 | Cc1cc(-c2ccccc2)cc(C)c1NC(=O)Nc1cc2ccccc2cc1C(=O)NC1(C(=O)O)CCCCCC1 [Example 518, 1-({[3-({[(3,5-dimethyl-4-biphenylyl)amino]carbonyl}amino)-2-naphthalenyl]carbonyl}amino)cycloheptanecarboxylic acid] |  | 6.47
10 | Cc1cccc(C)c1NC(=O)Nc1cc2ccccc2cc1C(=O)N[C@@H](Cc1ccc(O)cc1)C(=O)O [Example 53, N-[3-({[(2,6-dimethylphenyl)amino]carbonyl}amino)-2-naphthoyl]-L-tyrosine] |  | 6.44
11 | COc1cc(NC(=O)Nc2c(C)cccc2Cl)c(C(=O)NC(C(=O)O)c2ccccc2)cc1OC (centres unmarked) [Example 107, {[2-({[(2-chloro-6-methylphenyl)amino]carbonyl}amino)-4,5-dimethoxybenzoyl]amino}(phenyl)acetic acid] |  | 4.91
12 | C[C@](NC(=O)c1cc2ccccc2cc1NC(=O)Nc1c(Cl)cc(Cl)cc1Cl)(C(=O)O)C1CCCCC1 [Example 456, 2-cyclohexyl-N-{[3-({[(2,4,6-trichlorophenyl)amino]carbonyl}amino)-2-naphthalenyl]carbonyl}-L-alanine] |  | 6.64
13 | CCOc1ccc(-c2ccc(C(=O)N[C@H](C(=O)O)C3CCCCC3)c(NC(=O)Nc3c(C)cc(C)cc3C)c2)cc1 [Example 218, (2S)-Cyclohexyl({[4′-(ethyloxy)-3-({[(2,4,6-trimethylphenyl)amino]carbonyl}amino)-4-biphenylyl]carbonyl}amino)ethanoic acid] | 8.15 | 
14 | Cc1cccc(C)c1NC(=O)Nc1cc2ccccc2cc1C(=O)N(CC(=O)O)C1CCCCC1 [Example 245, N-cyclohexyl-N-{[3-({[(2,6-dimethylphenyl)amino]carbonyl}amino)-2-naphthalenyl]carbonyl}glycine] | 5.67 | 
15 | Cc1cc(C)c(NC(=O)Nc2cc3ccccc3cc2C(=O)NCC2CCCCC2)c(C)c1 [Example 330, N-(cyclohexylmethyl)-3-({[(2,4,6-trimethylphenyl)amino]carbonyl}amino)-2-naphthalenecarboxamide] | 4.84 | 
16 | O=C(O)C[C@H](NC(=O)c1cc2ccccc2cc1NC(=O)Nc1c(Cl)cc(OC(F)(F)F)cc1Cl)C(=O)O [Example 355, N-[(3-{[({2,6-dichloro-4-[(trifluoromethyl)oxy]phenyl}amino)carbonyl]amino}-2-naphthalenyl)carbonyl]-L-aspartic acid] | 7.85 | 
17 | COc1cc(NC(=O)Nc2c(C)cc(C)cc2C)c(C(=O)NC(C(=O)O)c2ccccc2)cc1OC (centres unmarked) [Example 106, [(2-{[(mesitylamino)carbonyl]amino}-4,5-dimethoxybenzoyl)amino](phenyl)acetic acid] |  | 5.37
18 | O=C1CCC(NC(=O)c2cc3ccccc3cc2NC(=O)Nc2c(Cl)cccc2Cl)(C(=O)O)CC1 [Example 292, 1-({[3-({[(2,6-dichlorophenyl)amino]carbonyl}amino)-2-naphthalenyl]carbonyl}amino)-4-oxocyclohexanecarboxylic acid] | 5.18 | 

Next, values leading:

Row | pIC50 [1] | pIC50 [2] | SMILES
19 |  | 6.51 | Cc1cccc(C)c1NC(=O)Nc1cc(Br)ccc1C(=O)N[C@H](C(=O)O)C1CCCCC1 [Example 173, (2S)-({[4-Bromo-2-({[(2,6-dimethylphenyl)amino]carbonyl}amino)phenyl]carbonyl}amino)(cyclohexyl)-ethanoic acid]
20 |  | 7.92 | COc1ccc(-c2cc(NC(=O)Nc3c(C)cc(C)cc3C)c(C(=O)N[C@H](C(=O)O)C3CCCCC3)s2)cc1 [Example 439, (2S)-cyclohexyl({[5-[4-(methyloxy)phenyl]-3-({[(2,4,6-trimethylphenyl)amino]carbonyl}amino)-2-thienyl]carbonyl}amino)ethanoic acid]
21 |  | 5.31 | O=C(Nc1cc2ccccc2cc1C(=O)N[C@H](C(=O)O)C1CCCCC1)Nc1c(F)cccc1F [Example 153, (2S)-cyclohexyl({[3-({[(2,6-difluorophenyl)amino]carbonyl}amino)-2-naphthalenyl]carbonyl}amino)ethanoic acid]
22 |  | 6.07 | Cc1cccc(Cl)c1NC(=O)Nc1cc(F)c(F)cc1C(=O)N[C@H](C(=O)O)C1CCCCC1 [Example 112, (2S)-{[2-({[(2-chloro-6-methylphenyl)amino]carbonyl}amino)-4,5-difluorobenzoyl]amino}(cyclohexyl)acetic acid]
23 |  | 4.54 | Cc1cccc(Cl)c1NC(=O)Nc1cc(Cl)ccc1C(=O)N[C@@H](CC1CCCCC1)C(=O)O [Example 125, N-[4-chloro-2-({[(2-chloro-6-methylphenyl)amino]carbonyl}amino)benzoyl]-3-cyclohexyl-L-alanine]
24 |  | 8.70 | CCCc1cc(C)c(NC(=O)Nc2cc3ccccc3cc2C(=O)N[C@H](C(=O)O)C2CCCCC2)c(C)c1 [Example 470, (2S)-cyclohexyl({[3-({[(2,6-dimethyl-4-propylphenyl)amino]carbonyl}amino)-2-naphthalenyl]carbonyl}amino)ethanoic acid]
25 |  | 7.85 | Cc1cc(C)c(NC(=O)Nc2cc(-c3ccc([N+](=O)[O-])cc3)ccc2C(=O)N[C@H](C(=O)O)C2CCCCC2)c(C)c1 [Example 197, (2S)-Cyclohexyl({[4′-nitro-3-({[(2,4,6-trimethylphenyl)amino]carbonyl}amino)-4-biphenylyl]carbonyl}amino)ethanoic acid]
26 |  | 6.15 | Cc1cccc(C)c1NC(=O)Nc1cc(F)ccc1C(=O)N[C@H](C(=O)O)C1CCCCC1 [Example 190, (2S)-Cyclohexyl({[2-({[(2,6-dimethylphenyl)amino]carbonyl}amino)-4-fluorophenyl]carbonyl}amino)ethanoic acid]
27 | 4.98 |  | CCCCc1ccc(NC(=O)Nc2cc3ccccc3cc2C(=O)N[C@H](C(=O)O)C2CCCCC2)cc1 [Example 247, (2S)-({[3-({[(4-butylphenyl)amino]carbonyl}amino)-2-naphthalenyl]carbonyl}amino)(cyclohexyl)ethanoic acid]
28 |  | 6.66 | Cc1cccc(C)c1NC(=O)Nc1cc(-c2ccsc2)ccc1C(=O)N[C@H](C(=O)O)C1CCCCC1 [Example 184, (2S)-Cyclohexyl({[2-({[(2,6-dimethylphenyl)amino]carbonyl}amino)-4-(3-thienyl)phenyl]carbonyl}amino)ethanoic acid]
29 | 4.79 |  | CCCCN(CCCC)c1ccc(C(=O)N[C@H](C(=O)O)C2CCCCC2)c(NC(=O)Nc2c(C)cc(C)cc2C)c1 [Example 207, (2S)-Cyclohexyl({[4-(dibutylamino)-2-({[(2,4,6-trimethylphenyl)amino]carbonyl}amino)phenyl]carbonyl}amino)ethanoic acid]
